Results published in patent US20040072990A1, “Antimicrobial peptides with reduced hemolysis and methods of their use” (priority 2002, published 2004).
In brackets after ≈: the same amount, converted by molar mass. Residues, ends and D or L forms follow the SMILES beside them.

What was measured:
[1] = system: human red blood cells; assay: Erythrocyte lysis (hemolysis); assay type: cell-based
Protocol: Pac 521-530 were tested for hemolysis against human red blood cells (RBC). The RBCs with EDTA were rinsed 3 times with PBS (800 g, 10 min) and resuspended in PBS. The RBCs were diluted into 10% with phosphate-buffered saline and placed 50 μl into each eppendorf. The peptides that dissolved in PBS were then added to 50 μl of 10% solution of RBCs and incubated for an hour at 37° C. (final RBC concentration, 5% v/v). The samples were centrifuged at 800 g for 10 min […]. Various concentrations of peptides were incubated with pretreated RBC and the percentage of hemolysis determined. […]

[2] = system: S. aureus; assay: MIC test (NCCLS broth microdilution); assay type: cell-based, Staphylococcus aureus
Protocol: (§1) The MIC value is the lowest concentration of peptide at which the visible growth of test organisms is inhibited and reduced.
(§2) Briefly, overnight cultures of the test organisms were diluted to produce an inoculum containing approximately 10^5 colonies in Meuller-Hinton broth (MHB). From the peptide stock solution, serial two-dilutions of the peptides in 50 μl volume was prepared in a 96-well microtiter plate, and all wells were subsequently inoculated with the diluted culture of the test organisms. After 18 hours of incubation at 37° C., the results were assayed for turbidity (cell growth). MIC values were performed three times on different occasions (FIG. 2), and the median values are shown.

[3] = system: B. pumilus; assay: MIC test (NCCLS broth microdilution); assay type: cell-based, Bacillus pumilus
Protocol: (§3) Generally, the in vitro antimicrobial activities of antimicrobial agents were tested using standard NCCLS bacterial inhibition assays, or minimum inhibition concentration (MIC) tests. The MIC value is the lowest concentration of peptide at which the visible growth of test organisms is inhibited and reduced.
as §2

[4] = system: B. cereus; assay: MIC test (NCCLS broth microdilution); assay type: cell-based, Bacillus cereus
Protocol: as §3, §2

[5] = system: E. coli; assay: MIC test (NCCLS broth microdilution); assay type: cell-based
Protocol: as §1, §2

[6] = system: B. substiis; assay: MIC test (NCCLS broth microdilution); assay type: cell-based, Bacillus. substilis
Protocol: as §3, §2

[7] = system: P. aeruginosa; assay: MIC test (NCCLS broth microdilution); assay type: cell-based, Pseudomonas aeruginosa
Protocol: as §3, §2

[8] = system: S. epidermidis; assay: MIC test (NCCLS broth microdilution); assay type: cell-based, Staphylococcus epidermidis
Protocol: as §3, §2

CC[C@H](C)[C@H](NC(=O)[C@H](Cc1c[nH]c2ccccc12)NC(=O)[C@H](CCCNC(=N)N)NC(=O)[C@H](CCCNC(=N)N)NC(=O)[C@H](Cc1c[nH]c2ccccc12)NC(=O)[C@@H](N)CCCCN)C(N)=O [Pac 301 L, K W R R W I] (H-KWRRWI-NH2; N-terminus and C-terminus assumed) was tested, and the “% lysis at 5 μg/ml” value [1] was 0.85%, the “% lysis at 50 μg/ml” value [1] was 6.8% and the “% lysis at 500 μg/ml” value [1] was 14%.
For CC[C@H](C)[C@H](NC(=O)[C@H](Cc1c[nH]c2ccccc12)NC(=O)[C@H](CCCCN)NC(=O)[C@@H](NC(=O)[C@H](Cc1c[nH]c2ccccc12)NC(=O)[C@@H](N)CCCCN)[C@@H](C)CC)C(N)=O [Pac-305 L, K W I K W I] (H-KWIKWI-NH2; N-terminus and C-terminus assumed), the “% lysis at 5 μg/ml” value [1] was 0.74%, the “% lysis at 50 μg/ml” value [1] was 7.2% and the “% lysis at 500 μg/ml” value [1] was 15%.
For CC[C@H](C)[C@H](NC(=O)[C@H](Cc1c[nH]c2ccccc12)NC(=O)[C@H](CCCNC(=N)N)NC(=O)[C@@H](NC(=O)[C@H](Cc1c[nH]c2ccccc12)NC(=O)[C@H](CCCNC(=N)N)NC(=O)[C@H](CCCNC(=N)N)NC(=O)[C@H](Cc1c[nH]c2ccccc12)NC(=O)[C@@H](N)CCCCN)C(C)C)C(N)=O [Pac-525 L, K W R R W V R W I] (H-KWRRWVRWI-NH2; N-terminus and C-terminus assumed), the “% lysis at 5 μg/ml” value [1] was 0.81%, the “% lysis at 50 μg/ml” value [1] was 7.2% and the “% lysis at 500 μg/ml” value [1] was 14%. For the same compound, the “hemolysis against RBC compared with other antimicrobial peptides” value ([1]; human RBC, in words) was “substantially less hemolytic”.
For CC[C@H](C)[C@H](NC(=O)[C@H](Cc1ccccc1)NC(=O)[C@H](CCCNC(=N)N)NC(=O)[C@@H](NC(=O)[C@H](Cc1ccccc1)NC(=O)[C@H](CCCNC(=N)N)NC(=O)[C@H](CCCNC(=N)N)NC(=O)[C@H](Cc1ccccc1)NC(=O)[C@@H](N)CCCCN)C(C)C)C(N)=O [Pac-527 L, K F R R F V R F I] (H-KFRRFVRFI-NH2; N-terminus assumed), the MIC ([2]; 1X Phosphate Buffer) was 4 µg/mL (≈ 3.16 µM), the MIC ([2]; Non Phosphate Buffer) was 4 µg/mL (≈ 3.16 µM) and the MIC ([3]; 1X Phosphate Buffer) was 4 µg/mL (≈ 3.16 µM). For the same compound, the MIC ([3]; Non Phosphate Buffer) was 2 µg/mL (≈ 1.58 µM), the MIC ([4]; 1X Phosphate Buffer) was 4 µg/mL (≈ 3.16 µM) and the MIC ([4]; Non Phosphate Buffer) was 4 µg/mL (≈ 3.16 µM). It also gave an MIC ([5]; 1X Phosphate Buffer) of 8 µg/mL (≈ 6.31 µM), an MIC ([5]; Non Phosphate Buffer) of 4 µg/mL (≈ 3.16 µM) and an MIC ([6]; 1X Phosphate Buffer) of 2 µg/mL (≈ 1.58 µM). The MIC ([6]; Non Phosphate Buffer) was 4 µg/mL (≈ 3.16 µM), the MIC ([7]; 1X Phosphate Buffer) was 8 µg/mL (≈ 6.31 µM) and the MIC ([7]; Non Phosphate Buffer) was 4 µg/mL (≈ 3.16 µM). It also gave an MIC ([8]; 1X Phosphate Buffer) of 4 µg/mL (≈ 3.16 µM) and an MIC ([8]; Non Phosphate Buffer) of 2 µg/mL (≈ 1.58 µM).
